Numbers after ± are expanded uncertainties.
How the values were obtained:
[1] = Crystal; DTA
[2] = Molar enthalpy of transition or fusion; conditions: Crystal; DSC

Normal melting temperature [1]: 200.1 ± 1.1 °C | Molar enthalpy of transition or fusion [2]: 9.53 ± 0.213 kcal/mol
SMILES: COc1ccc2cc3[n+](cc2c1OC)CCc1cc2c(cc1-3)OCO2.[Cl-]

Source: the NIST ThermoML archive (doi:10.1021/je0504360)
